Active and inactive are the calls of the source. No cut-off for these calls is given here.
Experiments:
PC-12 [1] = assay: Neuritogenic activity in rat PC12 cells assessed as potentiation of 20 ng/ml NGF-induced neurite outgrowth at 10 uM; type: functional, cell-based
PC-12 [2] = assay: Neuritogenic activity in rat PC12 cells assessed as potentiation of 10 ng/ml NGF-induced neurite outgrowth at 10 uM after 4 days NGF (reference value: 75.89 um); type: functional
PC-12 [3] = assay: Neuritogenic activity in rat PC12 cells assessed as potentiation of 10 ng/ml NGF-induced neurite outgrowth at 40 uM after 4 days (reference value: 75.89 um); type: functional
PC-12 [4] = assay: Neuritogenic activity in rat PC12 cells assessed as potentiation of 10 ng/ml NGF-induced neurite outgrowth at 40 uM after 96 hrs; type: functional, cell-based
PC-12 [5] = assay: Neuritogenic activity in rat PC12 cells assessed as appearance of short prominences at 40 uM after 48 hrs in presence of 10 ng/ml NGF; type: functional, cell-based
PC-12 [6] = assay: Neuritogenic activity in rat PC12 cells assessed as change in cell morphology at 40 uM up to 24 hrs in presence of 10 ng/ml NGF; type: functional, cell-based
PC-12 [7] = assay: Neuritogenic activity in rat PC12 cells assessed as elongation of prominences at 40 uM after 72 hrs in presence of 10 ng/ml NGF; type: functional, cell-based
PC-12 [8] = assay: Neuritogenic activity in rat PC12 cells assessed as potentiation of 10 ng/ml NGF-induced neurite outgrowth at 1 uM after 4 days (reference value: 75.89 um); type: functional

SMILES	Activity (PC-12 [1])	Activity (PC-12 [2])	Activity (PC-12 [3])	further results
CC(C)=CCOC1(C)C[C@@H]2OCC3=CCCC[C@]32O1 (stereo partly drawn)	inactive			
CC1(OCc2ccccc2)C[C@@H]2OCC3=CCCC[C@]32O1 (stereo partly drawn)	inactive			
CCO[C@@]1(C)C[C@@H]2OCC3=CCCC[C@]32O1		86.03 um	105.8 um	
CCCCO[C@]1(C)C[C@@H]2OCC3=CCCC[C@]32O1		55.82 um	72.88 um	
CCCCO[C@@]1(C)C[C@@H]2OCC3=CCCC[C@]32O1		47.69 um	61.81 um	
C=CCOC1(C)C[C@@H]2OCC3=CCCC[C@]32O1 (stereo partly drawn)	inactive			
COC1(C)C[C@@H]2OCC3=CCC[C@@H](CCOC(=O)Cc4cc(=O)oc5cc(N(C)C)ccc45)[C@]32O1 (stereo partly drawn)				Activity (PC-12 [4]): Active; Activity (PC-12 [5]): Active; Activity (PC-12 [6]): inactive; Activity (PC-12 [7]): Active
CCCO[C@]1(C)C[C@@H]2OCC3=CCCC[C@]32O1		65.35 um	76.62 um	
CO[C@]1(C)C[C@@H]2OCC3=CCCC[C@]32O1	Active	110.9 um	125.5 um	Activity (PC-12 [8]): 99.5 um
CC1(OC/C=C/c2ccccc2)C[C@@H]2OCC3=CCCC[C@]32O1 (stereo partly drawn)	inactive			
CCO[C@]1(C)C[C@@H]2OCC3=CCCC[C@]32O1		92.24 um	112.5 um	
CO[C@@]1(C)C[C@@H]2OCC3=CCCC[C@]32O1	Active	101.6 um	122.4 um	Activity (PC-12 [8]): 91.58 um
CCCO[C@@]1(C)C[C@@H]2OCC3=CCCC[C@]32O1		75.46 um	84.11 um	

Source: ChEMBL document CHEMBL1955850, “Syntheses of structurally-simplified and fluorescently-labeled neovibsanin derivatives and analysis of their neurite outgrowth activity in PC12 cells” (2012)
